This is an account of results in patent US20180049996A1, “THERAPEUTIC AGENT FOR CHRONIC RESPIRATORY DISEASE AND COMPOSITION FOR INHIBITING CARDIAC FIBROSIS” (NIPPON HYPOX LABORATORIES INCORPORATED, priority 2015, published 2018).

What all share (assay type): in vivo, female SD rats
Data set [1] deals with Myocardial Disorder Induced by Doxorubicin. The data set can be described thus: Histopathologic examination of the hearts (light microscope), myocardial disorder induced by doxorubicin. The conditions noted are these: Test group 1: doxorubicin 13 mg/kg alone. The protocol: (§1) Doxorubicin is used to produce disease-model animals of cardiomyopathy. The doxorubicin and 2,3,5-trimethylhydroquinone-1-hexyl ether (HTHQ) as the hydroquinone derivative represented by the general formula (1) described above of the present invention were simultaneously administered to female SD rats of 4 week old after birth to examine the effect of the action. The test groups consisted of the control group to which sterile saline was administered; test group 1 to which doxorubicin (13 mg/kg body weight) alone was administered; test group 2 to which doxorubicin (13 mg/kg body weight) and HTHQ (50 mg/kg body weight) were administered in combination; and test group 3 to which doxorubicin (13 mg/kg body weight), HTHQ (50 mg/kg body weight) and recombinant human erythropoietin (400 IU/kg body weight) were administered in combination. […] The test group 3 is used to confirm the presence or absence of the inhibitory effect brought about by combining HTHQ and rHuEPO on myocardial disorder.
Doxorubicin was orally administered in a single dose to the rats in test groups 1 to 3. 2,3,5-trimethylhydroquinone-1-hexyl ether (HTHQ) was orally administered to the rats in test groups 2 and 3 twice in total: 3 days before the administration of doxorubicin and on the day of the administration. Recombinant human erythropoietin was daily administered to the rats in test group 3 starting from 3 days before the administration of doxorubicin by intravenous injection. The number of animals in each group was 16. 8 animals of each group were sacrificed after collecting blood on day 7 and 14 after the administration of doxorubicin, and the autopsy of the hearts, the calculation of the relative weights of the hearts, the histopathologic examination of the hearts and the hematological examination were conducted.
“−” indicates “not found”, “+” indicates “mild”, “++” indicates “moderate”, and “+++” indicates “severe” in severity scores of the table.

In data set [2] the test system is Creatine phosphokinase (CPK). The data set can be described thus: Creatine phosphokinase (CPK) value in blood, myocardial disorder induced by doxorubicin. The conditions noted are these: Test group 1: doxorubicin 13 mg/kg alone; day 14; p<0.05. The protocol:
(§2) Doxorubicin is used to produce disease-model animals of cardiomyopathy. The doxorubicin and 2,3,5-trimethylhydroquinone-1-hexyl ether (HTHQ) as the hydroquinone derivative represented by the general formula (1) described above of the present invention were simultaneously administered to female SD rats of 4 week old after birth to examine the effect of the action. The test groups consisted of the control group to which sterile saline was administered; test group 1 to which doxorubicin (13 mg/kg body weight) alone was administered; test group 2 to which doxorubicin (13 mg/kg body weight) and HTHQ (50 mg/kg body weight) were administered in combination; and test group 3 to which doxorubicin (13 mg/kg body weight), HTHQ (50 mg/kg body weight) and recombinant human erythropoietin (400 IU/kg body weight) were administered in combination. The recombinant human erythropoietin (rHuEPO) is mainly used in the treatment of renal anemia etc., and has the effect to protect myocardium. The test group 3 is used to confirm the presence or absence of the inhibitory effect brought about by combining HTHQ and rHuEPO on myocardial disorder.
(§3) Doxorubicin was orally administered in a single dose to the rats in test groups 1 to 3. […]

Data set [3] concerns Myocardial Disorder Induced by Doxorubicin. The data set can be described thus: Relative weights of the hearts, myocardial disorder induced by doxorubicin. The conditions noted are these: Test group 1: doxorubicin 13 mg/kg alone. From the text:
Doxorubicin is used to produce disease-model animals of cardiomyopathy. […] The recombinant human erythropoietin (rHuEPO) is mainly used in the treatment of renal anemia etc., and has the effect to protect myocardium. The test group 3 is used to confirm the presence or absence of the inhibitory effect brought about by combining HTHQ and rHuEPO on myocardial disorder. […] Recombinant human erythropoietin was daily administered to the rats in test group 3 starting from 3 days before the administration of doxorubicin by intravenous injection. The number of animals in each group was 16. 8 animals of each group were sacrificed after collecting blood on day 7 and 14 after the administration of doxorubicin, and the autopsy of the hearts, the calculation of the relative weights of the hearts, the histopathologic examination of the hearts and the hematological examination were conducted. Myocardium is hypertrophied by fibrosing and the weight of the myocardium increases, and the relative weight of the heart tends to increase. […] Also, there was no significant difference between the other groups on day 7 and 14 after the administration (p<0.05).

The test system is the same in data set [4]. The experiment in a line: Histopathologic examination of the hearts (transmission electron microscope), myocardial disorder induced by doxorubicin. The note with it: Test group 1: doxorubicin 13 mg/kg alone; day 7. The protocol:
as §1
Doxorubicin was orally administered in a single dose to the rats in test groups 1 to 3. 2,3,5-trimethylhydroquinone-1-hexyl ether (HTHQ) was orally administered to the rats in test groups 2 and 3 twice in total: 3 days before the administration of doxorubicin and on the day of the administration. […]

For data set [5] the test system is unchanged. The experiment in a line: Autopsy and gross pathology of the hearts, myocardial disorder induced by doxorubicin. The note with it: test groups 1 to 3, doxorubicin 13 mg/kg; compared to the control group. The protocol:
as §2, §3

For `COc1cccc2c1C(=O)c1c(O)c3c(c(O)c1C2=O)C[C@@](O)(C(=O)CO)C[C@@H]3O[C@H]1C[C@H](N)[C@H](O)[C@H](C)O1` [doxorubicin, reference compound], in data set [1] (Day 7 after administration), the “Severity score: Cell infiltration in interstitial tissue” value is “+”; the “Severity score: Degeneration of myocardial cells” value is “++”; the “Severity score: Loss and disorganization of myocardial fibers” value is listed as “++”; the “Severity score: Loss of intercalated discs” value is on record as “+”. Besides, in data set [1] (Day 7 after administration), the “Severity score: Loss of striations” value is listed as “++” and the “Severity score: Vacuolation of myocardial fibers” value is “+”. For the same compound, in data set [1] (Day 14 after administration), the “Severity score: Cell infiltration in interstitial tissue” value was “−”; the “Severity score: Degeneration of myocardial cells” value is “+++”; the “Severity score: Loss and disorganization of myocardial fibers” value is recorded as “+++”; the “Severity score: Loss of intercalated discs” value is recorded as “++”. For the same compound, in data set [1] (Day 14 after administration), the “Severity score: Loss of striations” value is listed as “+++” and the “Severity score: Vacuolation of myocardial fibers” value is listed as “+++”. In data set [2], the “creatine phosphokinase (CPK) value” is given as “significantly higher than that of the control group”. Besides, the “relative weight of the heart” value in data set [3] (Day 7 after administration) stood at 0.3819 ± 0.0204%. Moreover, in data set [3] (Day 14 after administration), the “relative weight of the heart” value came out at 0.3626 ± 0.0221%. Besides, the “findings in myocardial cells (transmission electron microscope)” value in data set [4] is “Loss of striations, loss of intercalated discs, swelling of mitochondria, loss of mitochondrial outer membrane and detachment of cristae etc. were observed”. Besides, the “gross pathology of the hearts” value in data set [5] was “Apparent lesions were not observed”.
